Values quoted from earlier work as cited in patent publication US11583508B2, “Use of mitoxantrone liposome for treating non-Hodgkin's lymphoma” (CSPC ZHONGQI PHARMACEUTICAL TECHNOLOGY (SHIJIAZHUANG) CO., …, priority 2018, dated 2023).

Test system: relapsed/refractory PTCL (RR-PTCL)
Settings: monotherapy, second-line

SMILES | Primary endpoint: (ORR, %) [%]
O=C(/C=C/c1cccc(S(=O)(=O)Nc2ccccc2)c1)NO [Belinostat] | 25.8
C#CCC(Cc1cnc2nc(N)nc(N)c2n1)c1ccc(C(=O)N[C@@H](CCC(=O)O)C(=O)O)cc1 (some centres unmarked) [Pralatrexate] | 27
